Values joined by “and” are separate entries in the source; they are usually repeats but may differ in a detail not shown here. Identical values can stand only once.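 Exposure lasted 48 hours, with cells grown in 96-well plates and compounds tested at five concentrations. GI50: concentration for 50% inhibition of growth. At the TGI there is no net growth.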
Key:
Experiment in all cases: DTP human tumour cell line panel, 48 h
[1] = system: 786-0 renal
[2] = system: A498 renal
[3] = system: CCRF-CEM leukemia
[4] = system: HCC-2998 colon
[5] = system: M14 melanoma
[6] = system: OVCAR-8 ovarian
[7] = system: RXF 393 renal
[8] = system: SN12C renal
[9] = system: U251 CNS
[10] = system: NCI-H226 lung

SMILES: CSc1ccc(Cc2cc(C(C)(C)C)cc(C(C)(C)C)c2O)cc1
- TGI [1]: 30.4 µM
- TGI [2]: 29.3 µM
- TGI [3]: 40 µM
- TGI [4]: 32.5 µM
- TGI [5]: 28.6 µM
- TGI [6]: 30.7 µM
- TGI [7]: 26.3 µM
- TGI [8]: 28.6 µM
- TGI [9]: 28.6 µM

SMILES: CC1=NC(C)=C(/C(C)=N/NC(=O)c2ccccc2O)C(C)/C1=C(/C)NNC(=O)c1ccccc1O (stereo not drawn)
- TGI [1]: 44.3 µM
- TGI [2]: 99.6 µM
- TGI [5]: > 100 µM
- TGI [6]: 50.5 µM
- TGI [7]: 26.2 µM
- TGI [8]: > 100 µM
- TGI [9]: > 100 µM

SMILES: Oc1ccc(O)c(-n2cccn2)c1
- TGI [1]: > 100 µM
- TGI [2]: > 100 µM
- TGI [3]: 57 µM
- TGI [4]: > 100 µM
- TGI [5]: > 100 µM
- TGI [6]: > 100 µM
- TGI [7]: > 100 µM
- TGI [8]: > 100 µM
- TGI [9]: > 100 µM

SMILES: CC(=O)OC1CC2C(C)(C)C(=O)C=C[C@]2(C)C2CCC3(C)C(c4ccoc4)C(=O)C4OC43[C@]12C (stereo partly drawn)
- TGI [1]: 69.3 µM
- TGI [2]: 42.5 µM
- TGI [3]: 58.3 µM
- TGI [4]: 30.7 µM
- TGI [5]: 39.5 µM
- TGI [10]: 32.7 µM
- TGI [6]: 64.4 µM
- TGI [8]: 30.7 µM
- TGI [9]: 41.6 µM

SMILES: COC(=O)[C@@H](C)C[C@H](Cc1ccc(F)cc1)NC(=O)c1csc([C@@H](C[C@H](C(C)C)N(C)C(=O)[C@@H](NC(=O)[C@H]2CCCCN2C)C2CC2)OC(C)=O)n1
- GI50 [1]: 0.831 µM
- TGI [1]: > 25 µM
- GI50 [2]: 0.598 µM
- TGI [2]: 6.87 µM
- GI50 [3]: 0.153 µM
- TGI [3]: > 25 µM
- GI50 [4]: 2.48 µM
- TGI [4]: > 25 µM
- GI50 [5]: 0.157 µM
- TGI [5]: > 5.99 µM
- GI50 [10]: 1.26 µM
- TGI [10]: > 13.9 µM
- GI50 [6]: 0.537 µM
- TGI [6]: > 25 µM
- GI50 [8]: 0.357 µM
- TGI [8]: > 25 µM
- GI50 [9]: 0.293 µM
- TGI [9]: > 25 µM

SMILES: CCCCSC1CCSc2c1ccc1ccccc21 (stereo not drawn)
- TGI [1]: > 100 µM
- TGI [4]: > 100 µM
- TGI [5]: > 100 µM
- TGI [6]: > 100 µM
- TGI [7]: > 100 µM
- TGI [9]: > 100 µM

SMILES: Oc1cccc2cccnc12
- TGI [1]: > 100 µM
- TGI [2]: 27.7 µM and 56.4 µM and > 100 µM
- TGI [4]: 28 µM and > 100 µM and 47.9 µM
- GI50 [5]: 3.01 µM and 24.2 µM and 2.99 µM
- TGI [5]: 35.4 µM and > 100 µM
- GI50 [10]: 8.82 µM and 44.4 µM and 28.6 µM
- TGI [10]: 37.4 µM and > 100 µM and > 84 µM
- GI50 [6]: 3.39 µM and 14.6 µM and 2.67 µM
- TGI [6]: > 100 µM
- GI50 [7]: 13.4 µM and 69.6 µM and 14.6 µM
- TGI [7]: > 100 µM
- GI50 [8]: 5.56 µM and 29.8 µM and 4.23 µM
- TGI [8]: > 100 µM
- GI50 [9]: 3.32 µM and 23.8 µM and 5.14 µM
- TGI [9]: > 100 µM

SMILES: COc1ccc(C2=NN(C(C)=O)c3nc4ccccc4nc3O2)cc1
- TGI [1]: 48.7 µM
- TGI [3]: > 100 µM
- TGI [4]: > 100 µM
- TGI [6]: > 100 µM
- TGI [8]: > 100 µM
- TGI [9]: 61.8 µM

SMILES: COc1ccc(NC(=O)c2ccc(C(F)(F)F)nc2Nc2ccc(Cl)cc2C)cc1Cl
- GI50 [1]: 9.41 µM
- TGI [1]: 23.1 µM
- GI50 [2]: 5.02 µM
- TGI [2]: 17.5 µM
- GI50 [3]: 3.84 µM
- TGI [3]: 17.4 µM
- GI50 [5]: 7.14 µM
- TGI [5]: 22.3 µM
- GI50 [10]: 2.99 µM
- TGI [10]: 14.4 µM
- GI50 [6]: 7.67 µM
- TGI [6]: 24.3 µM
- GI50 [7]: 12.5 µM
- TGI [7]: 26.8 µM
- GI50 [8]: 3.65 µM
- TGI [8]: 14 µM
- GI50 [9]: 4.23 µM
- TGI [9]: 14.9 µM

SMILES: O=C(NC1CCCCC1)NC12CC3CC(CC(F)(C3)C1)C2
- TGI [1]: > 100 µM
- TGI [2]: > 100 µM
- TGI [3]: > 100 µM
- TGI [4]: > 100 µM
- TGI [5]: > 100 µM
- TGI [6]: > 100 µM
- TGI [7]: > 100 µM
- TGI [9]: > 100 µM

SMILES: CC(=O)NNc1ncc(C(=O)/C=C/c2ccccc2C)s1
- TGI [1]: > 100 µM
- TGI [2]: > 100 µM
- TGI [3]: > 100 µM
- TGI [4]: > 100 µM
- TGI [6]: > 100 µM
- TGI [7]: > 100 µM
- TGI [9]: > 100 µM

SMILES: Cc1ccc([N+](=O)[O-])cc1NC(=O)C(=O)Cc1nc2ccc(C(=O)c3ccccc3)cc2[nH]c1=O
- TGI [1]: > 100 µM
- TGI [3]: > 100 µM
- TGI [4]: > 100 µM
- TGI [5]: > 100 µM
- TGI [10]: > 100 µM
- TGI [6]: > 100 µM
- TGI [7]: > 100 µM
- TGI [8]: > 100 µM

SMILES: C=C1C2CC(OC(C)=O)C3(C)C(c4ccoc4)OC(=O)[C@@H](O)[C@]13OC1C[C@H](OC(C)=O)C(C)(C)[C@H](C(O)C(=O)OC)[C@]12C (stereo partly drawn)
- TGI [1]: > 100 µM
- TGI [2]: > 100 µM
- TGI [3]: > 100 µM
- TGI [4]: > 100 µM
- TGI [5]: > 100 µM
- TGI [10]: > 100 µM
- TGI [6]: > 100 µM
- TGI [8]: > 100 µM
- TGI [9]: > 100 µM

SMILES: COc1nc2c(c(=O)n1C)CN(c1ccccc1)C(=O)CN2C
- GI50 [1]: > 100 µM
- TGI [1]: > 100 µM
- GI50 [3]: > 100 µM
- TGI [3]: > 100 µM
- GI50 [4]: > 100 µM
- TGI [4]: > 100 µM
- GI50 [5]: 62.6 µM
- TGI [5]: > 100 µM
- GI50 [10]: 83.8 µM
- TGI [10]: > 100 µM
- GI50 [6]: 74.5 µM
- TGI [6]: > 100 µM
- GI50 [7]: 54.3 µM
- TGI [7]: > 100 µM
- GI50 [8]: 56.4 µM
- TGI [8]: > 100 µM
- GI50 [9]: 78.9 µM
- TGI [9]: > 100 µM

SMILES: O=C(/C=C/c1ccc(-c2ccccc2)cc1)c1ccccc1
- TGI [1]: 50.9 µM
- TGI [2]: 45.7 µM
- TGI [3]: > 100 µM
- TGI [4]: 33.7 µM
- TGI [5]: > 100 µM
- TGI [10]: 49.3 µM
- TGI [6]: 33.8 µM
- TGI [8]: > 100 µM
- TGI [9]: 58.5 µM

SMILES: N[C@@H](Cc1c[nH]c2ccccc12)C(=O)NC1CCN(Cc2c[nH]c3ccc(Cl)cc23)CC1
- GI50 [1]: 11.4 µM
- TGI [1]: 24.9 µM
- GI50 [3]: 2.15 µM
- TGI [3]: 4.95 µM
- GI50 [4]: 3.3 µM
- TGI [4]: 13.4 µM
- GI50 [5]: 6.4 µM
- TGI [5]: 19.5 µM
- GI50 [10]: 15.4 µM
- TGI [10]: 34.1 µM
- GI50 [6]: 15.1 µM
- TGI [6]: 29.6 µM
- GI50 [8]: 15.3 µM
- TGI [8]: 30.4 µM
- GI50 [9]: 10.6 µM
- TGI [9]: 22.7 µM

SMILES: O=C(Nc1ccc(Cl)cc1)c1cc(NCc2cc(O)ccc2O)ccc1O
- GI50 [1]: 6.17 µM
- TGI [1]: 19.6 µM
- GI50 [2]: 17.1 µM
- TGI [2]: 47.1 µM
- GI50 [3]: 0.605 µM
- TGI [3]: 6.79 µM
- GI50 [4]: 7.7 µM
- TGI [4]: 21.4 µM
- GI50 [5]: 10.5 µM
- TGI [5]: 27.1 µM
- GI50 [6]: 4.35 µM
- TGI [6]: 20.1 µM
- GI50 [7]: 2.24 µM
- TGI [7]: 5.31 µM
- GI50 [8]: 7.47 µM
- TGI [8]: 22.6 µM
- GI50 [9]: 3.96 µM
- TGI [9]: 13.4 µM

SMILES: COc1ccc2cc(C(=O)N3CCC([C@@H](C)C(=O)NCc4ccc5c(c4)OCO5)CC3)[nH]c2c1
- GI50 [1]: 36.7 µM
- TGI [1]: > 100 µM
- GI50 [2]: > 100 µM
- TGI [2]: > 100 µM
- GI50 [3]: > 100 µM
- TGI [3]: > 100 µM
- GI50 [4]: > 100 µM
- TGI [4]: > 100 µM
- GI50 [5]: > 100 µM
- TGI [5]: > 100 µM
- GI50 [10]: > 100 µM
- TGI [10]: > 100 µM
- GI50 [6]: 48.4 µM
- TGI [6]: > 100 µM
- GI50 [8]: > 100 µM
- TGI [8]: > 100 µM
- GI50 [9]: > 100 µM
- TGI [9]: > 100 µM
